How the values were obtained:
JAK-2 enzyme = JAK-2 enzyme (Homo sapiens, UniProt O60674); assay: JAK2 Inhibition Assay; assay type: biochemical; conditions: 15 μM poly(Glu)4Tyr, 12 μM ATP, 25° C.
Experimental: (§1) Compounds were screened for their ability to inhibit JAK3 using the assay shown below. Reactions were carried out in a kinase buffer containing 100 mM HEPES (pH 7.4), 1 mM DTT, 10 mM MgCl2, 25 mM NaCl, and 0.01% BSA. Substrate concentrations in the assay were 5 μM ATP (200 uCi/μmole ATP) and 1 μM poly(Glu)4Tyr. Reactions were carried out at 25° C. and 1 nM JAK3.
(§2) To each well of a 96 well polycarbonate plate was added 1.5 μl of a candidate JAK3 inhibitor along with 50 μl of kinase buffer containing 2 μM poly(Glu)4Tyr and […]. This was then mixed and […] of kinase buffer containing 2 nM JAK3 enzyme was added to start the reaction. After 20 minutes at room temperature (25° C.), the reaction was stopped with 50 μl of 20% trichloroacetic acid (TCA) that also contained 0.4 mM ATP. The entire contents of each well were then transferred to a 96 well glass fiber filter plate using a TomTek Cell Harvester. After washing, 60 μl of scintillation fluid was added and ^33P incorporation detected on a Perkin Elmer TopCount.
The assays were as described above in Example 36 except that JAK-2 enzyme was used, the final poly(Glu)4Tyr concentration was 15 μM, and final ATP concentration was 12 μM.
(§3) Tables 5 and 6 depict enzyme inhibition data (Ki) for certain exemplary compounds. Compound numbers in Tables 5 and 6 correspond to those compounds depicted in Tables 1 and 2, respectively.

JAK3 = molecular target: T1, JAK3 (Homo sapiens, UniProt P52333); assay: JAK3 Inhibition Assay; assay type: biochemical; conditions: 1 μM poly(Glu)4Tyr, 5 μM ATP, 1 nM JAK3, 25° C.; read-out: JAK3 enzyme inhibition data (Ki)
T1 sequence (P52333 1-1124): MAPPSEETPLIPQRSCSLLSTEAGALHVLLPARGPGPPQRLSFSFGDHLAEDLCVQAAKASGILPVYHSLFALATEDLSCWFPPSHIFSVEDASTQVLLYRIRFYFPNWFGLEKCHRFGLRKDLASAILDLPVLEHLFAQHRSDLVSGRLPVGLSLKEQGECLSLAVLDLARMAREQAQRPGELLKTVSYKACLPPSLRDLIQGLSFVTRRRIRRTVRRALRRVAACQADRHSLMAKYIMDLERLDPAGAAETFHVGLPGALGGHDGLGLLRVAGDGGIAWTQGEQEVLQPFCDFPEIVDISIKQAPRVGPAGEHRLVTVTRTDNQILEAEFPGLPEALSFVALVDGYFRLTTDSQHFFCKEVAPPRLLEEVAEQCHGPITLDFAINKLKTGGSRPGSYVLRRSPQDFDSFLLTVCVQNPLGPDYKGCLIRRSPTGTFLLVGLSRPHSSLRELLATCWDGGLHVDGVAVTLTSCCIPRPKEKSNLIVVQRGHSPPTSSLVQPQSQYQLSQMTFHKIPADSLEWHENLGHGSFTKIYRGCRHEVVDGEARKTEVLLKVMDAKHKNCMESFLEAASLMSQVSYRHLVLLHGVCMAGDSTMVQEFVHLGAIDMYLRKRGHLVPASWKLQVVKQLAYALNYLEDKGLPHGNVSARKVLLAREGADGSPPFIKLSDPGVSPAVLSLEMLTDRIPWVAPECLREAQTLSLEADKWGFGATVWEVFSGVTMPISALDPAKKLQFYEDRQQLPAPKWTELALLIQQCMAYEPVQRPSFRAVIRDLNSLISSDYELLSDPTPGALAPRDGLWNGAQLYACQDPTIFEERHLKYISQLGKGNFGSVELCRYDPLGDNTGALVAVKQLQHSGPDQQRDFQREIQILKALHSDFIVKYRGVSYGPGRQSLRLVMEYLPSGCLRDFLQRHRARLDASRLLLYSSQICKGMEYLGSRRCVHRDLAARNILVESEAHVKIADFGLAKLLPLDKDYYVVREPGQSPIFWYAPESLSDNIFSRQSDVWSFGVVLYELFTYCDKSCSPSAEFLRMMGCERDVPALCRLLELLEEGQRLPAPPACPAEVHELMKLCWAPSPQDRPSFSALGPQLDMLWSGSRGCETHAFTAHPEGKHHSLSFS
Experimental: as §1, §2, §3

Sequence of JAK-2 enzyme (O60674 whole entry, species assumed): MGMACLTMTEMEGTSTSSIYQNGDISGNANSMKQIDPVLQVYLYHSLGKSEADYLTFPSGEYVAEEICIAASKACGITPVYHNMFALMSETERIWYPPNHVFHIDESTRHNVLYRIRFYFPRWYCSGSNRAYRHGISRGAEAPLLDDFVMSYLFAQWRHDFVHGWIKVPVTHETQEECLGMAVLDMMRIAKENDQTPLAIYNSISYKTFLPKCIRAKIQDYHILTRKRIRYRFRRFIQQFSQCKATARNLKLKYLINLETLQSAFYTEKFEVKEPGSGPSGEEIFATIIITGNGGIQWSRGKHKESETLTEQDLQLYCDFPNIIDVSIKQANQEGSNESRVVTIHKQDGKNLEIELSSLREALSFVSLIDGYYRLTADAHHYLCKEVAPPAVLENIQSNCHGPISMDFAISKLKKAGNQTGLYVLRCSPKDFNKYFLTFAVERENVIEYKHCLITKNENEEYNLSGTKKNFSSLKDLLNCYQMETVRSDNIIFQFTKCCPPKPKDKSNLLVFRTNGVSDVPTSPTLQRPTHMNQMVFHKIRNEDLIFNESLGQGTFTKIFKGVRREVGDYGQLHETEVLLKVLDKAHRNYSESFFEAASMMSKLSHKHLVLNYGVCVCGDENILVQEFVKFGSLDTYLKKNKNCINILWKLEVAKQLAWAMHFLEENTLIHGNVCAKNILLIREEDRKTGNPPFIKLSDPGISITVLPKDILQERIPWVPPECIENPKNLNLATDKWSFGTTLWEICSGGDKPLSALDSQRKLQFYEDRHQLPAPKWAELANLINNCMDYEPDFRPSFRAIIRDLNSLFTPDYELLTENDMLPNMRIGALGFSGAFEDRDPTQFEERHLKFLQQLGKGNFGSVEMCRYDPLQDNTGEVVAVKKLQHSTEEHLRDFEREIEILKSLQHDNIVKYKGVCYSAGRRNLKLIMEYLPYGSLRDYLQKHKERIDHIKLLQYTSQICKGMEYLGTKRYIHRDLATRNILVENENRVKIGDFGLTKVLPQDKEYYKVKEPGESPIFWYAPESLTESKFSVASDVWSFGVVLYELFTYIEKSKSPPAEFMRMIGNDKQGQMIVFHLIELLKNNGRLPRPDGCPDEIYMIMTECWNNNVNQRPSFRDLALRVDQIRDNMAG

Ki (JAK-2 enzyme) [nM]	Ki (JAK3) [nM]	Compound
100 to 500	< 100	CCN(CC)C(=O)C(C)n1cc(-c2ncnc3[nH]ccc23)cn1 (centres unmarked) [Compound 88]
< 100	100 to 500	CC(C(=O)NCc1cccn1C)n1cc(-c2ncnc3[nH]ccc23)cn1 (centres unmarked) [Compound 89]
< 100	< 100	CC(C(=O)NCC(F)(F)F)n1cc(-c2ncnc3[nH]ccc23)cn1 (centres unmarked) [Compound 91]
< 100	< 100	CCCCC(C)n1cc(-c2ncnc3[nH]ccc23)cn1 (centres unmarked) [Compound 93]
< 100	< 100	O=C(CCC1CC1)Nc1nc(-c2ncnc3[nH]ccc23)cs1 [Compound 96]
< 100	< 100	CCC(C)CC(=O)Nc1nc(-c2ncnc3[nH]ccc23)cs1 (centres unmarked) [Compound 98]
< 100	< 100	CC(CC(F)(F)F)C(=O)Nc1nc(-c2ncnc3[nH]ccc23)cs1 (centres unmarked) [Compound 102]
< 100	< 100	CCCN(C(=O)CC(C)C)c1nc(-c2ncnc3[nH]ccc23)cs1 [Compound 103, 3-Methyl-N-propyl-N-[4-(7H-pyrrolo[2,3-d]pyrimidin-4-yl)-thiazol-2-yl]-butyramide]
< 100	< 100	CCN(C(=O)CC(C)C)c1nc(-c2ncnc3[nH]ccc23)cs1 [Compound 104]
< 100	< 100	CC(C)CC(=O)N(C)c1nc(-c2ncnc3[nH]ccc23)cs1 [Compound 105]
< 100	100 to 500	CC(C)CCn1cc(-c2ncnc3[nH]ccc23)cn1 [Compound 107]
< 100	< 100	N#CCN(Cc1cccc(Cl)c1)C(=O)c1cc(-c2ncnc3[nH]ccc23)c[nH]1 [Compound 113]
< 100	< 100	C=CCN(C(=O)c1cc(-c2ncnc3[nH]ccc23)c[nH]1)C(C)c1ccccc1 (centres unmarked) [Compound 114]
< 100	< 100	N#CCCN(CC1CC1)C(=O)c1cc(-c2ncnc3[nH]ccc23)c[nH]1 [Compound 115]

The remaining lines, values behind:

Compound	Ki (JAK-2 enzyme) [nM]	Ki (JAK3) [nM]
CCCNC(=O)C(C)n1cc(-c2ncnc3[nH]ccc23)cn1 (centres unmarked) [Compound 90]	100 to 500	< 100
CCCCC(CC)n1cc(-c2ncnc3[nH]ccc23)cn1 (centres unmarked) [Compound 92]	< 100	< 100
CCCC(CC)n1cc(-c2ncnc3[nH]ccc23)cn1 (centres unmarked) [Compound 94, 4-(1-(hexan-3-yl)-1H-pyrazol-4-yl)-7H-pyrrolo[2,3-d]pyrimidine]	< 100	< 100
COC(C)C(=O)Nc1nc(-c2ncnc3[nH]ccc23)cs1 (centres unmarked) [Compound 97]	< 100	100 to 500
O=C(CCC(F)(F)F)Nc1nc(-c2ncnc3[nH]ccc23)cs1 [Compound 99]	< 100	< 100
O=C(Nc1nc(-c2ncnc3[nH]ccc23)cs1)C(O)C(F)(F)F (centres unmarked) [Compound 100]	< 100	< 100
O=C(Nc1nc(-c2ncnc3[nH]ccc23)cs1)C(O)c1ccccc1 (centres unmarked) [Compound 101]	< 100	< 100
CCCn1cc(-c2ncnc3[nH]ccc23)cn1 [Compound 106]	< 100	100 to 500
O=C(c1cc(-c2ncnc3[nH]ccc23)c[nH]1)N(CCC(F)(F)F)Cc1ccccc1 [Compound 108]	< 100	< 100
O=C(c1cc(-c2ncnc3[nH]ccc23)c[nH]1)N(CC1CC1)CC(F)(F)F [Compound 109]	< 100	< 100
N#CCN(Cc1ccccc1)C(=O)c1cc(-c2ncnc3[nH]ccc23)c[nH]1 [Compound 111]	< 100	< 100
N#CCN(Cc1ccc(F)cc1)C(=O)c1cc(-c2ncnc3[nH]ccc23)c[nH]1 [Compound 112]	< 100	< 100
C=CCN(C(=O)c1cc(-c2ncnc3[nH]ccc23)c[nH]1)C(C)c1ccccc1 (centres unmarked) [Compound 116]	< 100	< 100
COC1CCC(C(=O)Nc2nc(-c3ncnc4[nH]ccc34)cs2)CC1 (centres unmarked) [Compound 117]	< 100	100 to 500

Reference: US20090227607A1, “DEAZAPURINES USEFUL AS INHIBITORS OF JANUS KINASES” (priority 2006, published 2009)
